Assays:
Type in all cases: in vivo, human
[1] = test system: patients with acute myocardial infarction; experiment: AMI cohort: Cox regression and Kaplan-Meier analysis for MACE at 2 years post-AMI
Protocol: We studied 953 STEMI and NSTEMI patients admitted to University Hospitals of Leicester NHS trust between August 2004 and April 2007. This observational cohort study complied with the Declaration of Helsinki and was approved by the local ethics committee; written informed consent was obtained from patients. […] Patients with known malignancy, renal replacement therapy or surgery in the previous month were excluded. Estimated glomerular filtration rate (eGFR) was calculated from the simplified Modification of Diet in Renal Disease formula (Smilde T D, van Veldhuisen D J, Navis G, Voors A A, Hillege H L. Drawbacks and prognostic value of formulas estimating renal function in patients with chronic heart failure and systolic dysfunction. Circulation 2006; 114:1572-80). All patients received standard medical treatment and revascularisation was at the discretion of the attending physician.
Plasma samples: Blood samples (anticoagulated with EDTA and aprotinin) were drawn after 15 minutes bed rest, immediately after diagnosis and within 36 h of symptom onset. Plasma was stored at −80° C. until assayed in a single batch for blinded determination of plasma hGH.
During follow-up over 2 years, there were 281 MACE, the primary composite endpoint (comprising 117 deaths, 71 HF hospitalisations and 93 re-AMIs). […]

[2] = test system: subjects with plaque in the right carotid artery but no symptoms of carotid artery disease; experiment: BCAPS: fasting plasma hs-GH under treatment; settings: for Growth Hormone - females, geometric mean / Growth Hormone - males, geometric mean: 12 months of treatment, fasting plasma
Text: The β-Blocker Cholesterol-Lowering Asymptomatic Plaque Study (BCAPS) was a randomized, double blind, placebo-controlled, single-center clinical trial that took place between 1994 and 1999. A detailed description of BCAPS can be found in the original paper (Hedblad et al. 2001. Circulation 103: 1721-1726), following here is a brief summary. The original study population consisted of 361 men and 432 women (total n=793) 49 to 70 years of age recruited from MDC-CC. Subjects included in BCAPS had plaque in the right carotid artery but no symptoms of carotid artery disease. Exclusion criteria were: myocardial infarction, angina pectoris or stroke within the previous 3 months; previous surgery in the right carotid artery; regular use of β-blockers or statins; blood pressure >160 (systolic) or >95 (diastolic) mm Hg; total cholesterol >8.0 mmol/l; hyperglycemia suspected to require insulin treatment; and conditions that in the view of the investigator made the participant unsuitable for the trial. The study consisted of 4 different treatment groups and the participants were randomized to 1 of the following: placebo/placebo, metoprolol CR/XL (25 mg once daily)/placebo, fluvastatin (40 mg once daily)/placebo or metoprolol CR/XL (25 mg once daily)/fluvastatin (40 mg once daily). The treatment period was 36-months. Fasting blood samples were drawn at baseline and at 12, 24 and 36 months. HDL-C, total cholesterol and TG were measured according to standard procedures at the Department of Clinical Chemistry, University Hospital of Malmö. LDL-C levels were calculated according to the Friedewald formula. GH levels were measured in stored fasting plasma samples, which were frozen immediately to −80° C. at the different examinations. A number of the samples stored in the freezer were missing or had insufficient plasma for the analysis of hs-GH. Subjects in which either the baseline-value of GH or the 12-month value of GH was missing were excluded from further analysis. After this adjustment the study consisted of 472 individuals. All samples were measured using the hs-hGH immunoassay as described above. In the analyses where treatment groups are compared, the groups are either the 4 randomization groups or they are divided in to 2 groups which are fluvastatin vs non-fluvastatin (i.e placebo) or metoprolol vs non-metoprolol. Since fasting hs-GH is known to differ between men and women all models were performed separate for men and women as well as combined. All models were adjusted for age, sex (if not already gender separated) and the natural logarithm of the fasting level of hs-GH at baseline. To investigate if fasting hs-GH was affected by treatment with fluvastatin or metoprolol we performed multiple regression analysis with ΔGH (baseline value subtracted from 12 month value) as the dependent variable and the treatment groups as independent variables.

[3] = test system: subjects with plaque in the right carotid artery but no symptoms of carotid artery disease; experiment: BCAPS: carotid ultrasound intima media thickness (IMT); settings: 36 months; for IMTbulb, median: maximum IMT at the carotid bifurcation; for IMTcca, median: mean IMT in the common carotid artery
Text: The β-Blocker Cholesterol-Lowering Asymptomatic Plaque Study (BCAPS) was a randomized, double blind, placebo-controlled, single-center clinical trial that took place between 1994 and 1999. A detailed description of BCAPS can be found in the original paper (Hedblad et al. 2001. Circulation 103: 1721-1726), following here is a brief summary. The original study population consisted of 361 men and 432 women (total n=793) 49 to 70 years of age recruited from MDC-CC. Subjects included in BCAPS had plaque in the right carotid artery but no symptoms of carotid artery disease. Exclusion criteria were: myocardial infarction, angina pectoris or stroke within the previous 3 months; previous surgery in the right carotid artery; regular use of β-blockers or statins; blood pressure >160 (systolic) or >95 (diastolic) mm Hg; total cholesterol >8.0 mmol/l; hyperglycemia suspected to require insulin treatment; and conditions that in the view of the investigator made the participant unsuitable for the trial. The study consisted of 4 different treatment groups and the participants were randomized to 1 of the following: placebo/placebo, metoprolol CR/XL (25 mg once daily)/placebo, fluvastatin (40 mg once daily)/placebo or metoprolol CR/XL (25 mg once daily)/fluvastatin (40 mg once daily). Carotid ultrasound was performed at baseline, 18 and 36 months (Hedblad et al. 2001. Circulation 103: 1721-1726). In brief, a predefined extent of the right carotid bifurcation was scanned for presence of plaques and the maximum IMT at the bifurcation (IMTbulb) and the mean IMT in the common carotid artery ([…]) was measured.

[4] = test system: subjects with plaque in the right carotid artery but no symptoms of carotid artery disease; experiment: BCAPS: LDL-C under treatment; settings: 12 months of treatment
Text: The β-Blocker Cholesterol-Lowering Asymptomatic Plaque Study (BCAPS) was a randomized, double blind, placebo-controlled, single-center clinical trial that took place between 1994 and 1999. A detailed description of BCAPS can be found in the original paper (Hedblad et al. 2001. Circulation 103: 1721-1726), following here is a brief summary. The original study population consisted of 361 men and 432 women (total n=793) 49 to 70 years of age recruited from MDC-CC. Subjects included in BCAPS had plaque in the right carotid artery but no symptoms of carotid artery disease. […] HDL-C, total cholesterol and TG were measured according to standard procedures at the Department of Clinical Chemistry, University Hospital of Malmö. LDL-C levels were calculated according to the Friedewald formula. GH levels were measured in stored fasting plasma samples, which were frozen immediately to −80° C. at the different examinations. […] All samples were measured using the hs-hGH immunoassay as described above.

[5] = FEMALE, all receiving the drug vs individuals not receiving it
[6] = FEMALE, model All groups, each compared against placebo
[7] = MALE, all receiving the drug vs individuals not receiving it
[8] = MALE, model All groups, each compared against placebo
[9] = gender ALL, all receiving the drug vs individuals not receiving it
[10] = gender ALL, model All groups, each compared against placebo

Row | Compound | Univariable HR (95% CI) for MACE [1] | Growth Hormone - females, geometric mean [2] | Growth Hormone - males, geometric mean [2] | B, multiple linear regression of ΔGH (12 months - baseline) vs treatment group [2, 5] | B, multiple linear regression of ΔGH (12 months - baseline) vs treatment group [2, 6] | B, multiple linear regression of ΔGH (12 months - baseline) vs treatment group [2, 7] | B, multiple linear regression of ΔGH (12 months - baseline) vs treatment group [2, 8] | B, multiple linear regression of ΔGH (12 months - baseline) vs treatment group [2, 9] | B, multiple linear regression of ΔGH (12 months - baseline) vs treatment group [2, 10] | IMTbulb, median [3] | IMTcca, median [3] | LDL-C, mean [4]
1 | CC(=O)Oc1ccccc1C(=O)O [Aspirin] | 0.54 (0.41-0.72) | – | – | – | – | – | – | – | – | – | – | –
2 | COCCc1ccc(OCC(O)CNC(C)C)cc1 (centres unmarked) [Metoprolol] | – | 860 pg/mL | 170 pg/mL | 0.33 | −0.06 | −0.27 | −0.26 | 0.13 | −0.11 | 1.89 | 0.90 | 4.17 mmol/L
3 | CC(C)n1c(/C=C/C(O)CC(O)CC(=O)O)c(-c2ccc(F)cc2)c2ccccc21 (centres unmarked) [Fluvastatin] | – | 810 pg/mL | 160 pg/mL | 0.41 | 0.02 | −0.37 | −0.36 | 0.12 | −0.11 | 2.02 | 0.87 | 3.27 mmol/L

Reference: patent US20170234889A1, “hGH Determination for Use to Guide Prevention of a Major Adverse Cardiac Event or a Cardiovascular Disease in a Subject” (Sphingotec GmbH, priority 2014, published 2017)
